Measurements published in patent US10570184B2, “GLP-1/glucagon receptor co-agonists for medical use” (Novo Nordisk A/S, priority 2014, dated 2020).
Starred links: 1 amine or outer side, 2 acyl side, 3 side chain; linkers in the order of their positions; H or OH if unused. Non-standard residues stand in square brackets, D forms with d. Residues, ends and D or L forms follow the SMILES beside them. Groups on a side chain read outwards from the residue. *: point of attachment. C18 diacid = O=C(O)CCCCCCCCCCCCCCCCC(=O)*; γGlu = O=C(O)[C@H](CCC(=O)[*:2])N[*:1]; Ac4c = NC1(C(=O)O)CCC1; AEEA = NCCOCCOCC(=O)O; Aib = CC(C)(N)C(=O)O

Columns and labels:
human GLP-1 receptor [1] = molecular target: T1, human GLP-1 receptor (Homo sapiens, UniProt P43220); test: Assay (I)(a) GLP-1 receptor activation, CRE luciferase reporter gene assay in BHK cells; type: cell-based; conditions: without presence of serum albumin; read-out: GLP-1R EC50 (pM) [Assay (I)(a)]
T1 construct: expressed in transfected cells; host or cells: membranes of BHK cells (parent BHKTS13), clone FCW467-12A
T1 sequence (P43220 24-463): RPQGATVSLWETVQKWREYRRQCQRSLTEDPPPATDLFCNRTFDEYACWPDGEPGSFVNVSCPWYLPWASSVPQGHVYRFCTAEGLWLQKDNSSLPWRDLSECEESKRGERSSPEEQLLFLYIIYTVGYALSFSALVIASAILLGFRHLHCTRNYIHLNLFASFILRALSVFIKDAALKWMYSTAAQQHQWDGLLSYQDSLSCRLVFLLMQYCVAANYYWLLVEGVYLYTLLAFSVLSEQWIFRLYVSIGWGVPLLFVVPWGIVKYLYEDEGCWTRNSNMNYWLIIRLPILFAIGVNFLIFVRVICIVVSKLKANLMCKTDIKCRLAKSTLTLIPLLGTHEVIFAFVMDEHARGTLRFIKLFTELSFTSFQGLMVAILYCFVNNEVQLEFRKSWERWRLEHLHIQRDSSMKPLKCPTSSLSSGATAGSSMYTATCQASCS
Procedure: The purpose of this example was to test the activity or potency, of the glucagon derivatives of the invention, in vitro. The in vitro potency is the measure of human GLP-1 receptor (GLP-1R) or glucagon receptor (glucagonR) activation, respectively, in a whole cell assay. In vitro potency was determined by measuring the response of human GLP-1 or glucagon receptor, respectively, in a reporter gene assay. The assay was performed in a stably transfected BHK cell line that expresses either the human GLP-1 receptor or the human glucagon receptor and contains the DNA for the cAMP response element (CRE) coupled to a promoter and the gene for firefly luciferase (CRE luciferase). […] When assay incubation was completed, the luciferase substrate (luciferin) was added and the enzyme converted luciferin to oxyluciferin and produces bioluminescence. The luminescence was measured as the readout for the assay. The cells used in this assay (clone FCW467-12A/KZ10-1) were BHK cells with BHKTS13 as a parent cell line. The cells were derived from a clone (FCW467-12A) that expresses the human GLP-1 receptor and were established by further transfection with CRE luciferase to obtain the current clone. The cells were cultured at 5% CO2 in DMEM medium with 10% FBS, 1×GlutaMAX, 1 mg/ml G418, 240 nM MTX (methotrexate) and 1% pen/strep (penicillin/streptomycin). They were aliquoted and stored in liquid nitrogen. Before each assay, an aliquot was taken up and washed three times in PBS before being suspended at the desired concentration in assay medium. For 96-well plates the suspension was made to give a final concentration of 5×10EE3 cells/well. The following chemicals were used in the assay: Pluronic F-68 (10%) (Gibco 2404), ovalbumin (Sigma A5503), DMEM w/o phenol red (Gibco 11880-028), 1 M Hepes (Gibco 15630), Glutamax 100× (Gibco 35050) and steadylite plus (PerkinElmer 6016757). Assay Medium consisted of DMEM w/o phenol red, 10 mM Hepes, 1× GlutaMAX, 2% Ovalbumin and 0.2% Pluronic F-68. Cell stocks were thawed in a 37° C. water bath. Cells were washed three times in PBS. The cells were counted and adjusted to 5×10EE3 cells/50 μl (1×10EE5 cells/ml) in Assay Medium. A 50 μl aliquot of cells was transferred to each well in the assay plate. Stocks of the test compounds and reference compounds were diluted to a concentration of […] in Assay Medium. Compounds were diluted 10-fold to give the following concentrations: 2×10EE-6 M, 2×10EE-7 M, 2×10EE-8 M; 2×10EE-9 M, 2×10EE-10 M, 2×10EE-11 M, 2×10EE-12 M and 2×10EE-13 M. For each compound a blank assay medium control was also included. A 50 μl aliquot of compound or blank was transferred from the dilution plate to the assay plate. Compounds were tested at the following final concentrations: 1×10EE-6 M, 1×10EE-7 M, 1×10EE-8 M; 1×10EE-9 M, 1×10EE-10 M, 1×10EE-11 M and 1×10EE-12 M and 1×10EE-13 M. The assay plate was incubated for 3 h in a 5% CO2 incubator at 37° C. The assay plate was removed from the incubator and allowed to stand at room temperature for 15 min. A 100 μl aliquot of steadylite plus reagent was added to each well of the assay plate (reagent is light sensitive). Each assay plate was covered with aluminum foil to protect it from light and shaken for 30 min at room temperature. Each assay plate was read in a Perkin Elmer TopCount NXT instrument. The data from the TopCount instrument was transferred to GraphPad Prism software. The software performed a non-linear regression (log(agonist) vs response-Variable slope (four parameter)). EC50 values were calculated by the software and reported in pM.

human GLP-1 receptor [2] = molecular target: T1, human GLP-1 receptor; test: Assay (II)(a) GLP-1 receptor binding, 125I-GLP-1 displacement SPA on BHK membranes; conditions: without presence of serum albumin; read-out: GLP-1R IC50 (nM) [Assay (II)(a)]
How it was run: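 Membranes from BHK cells (clone FCW467-12A) stably expressing human GLP-1R were incubated with serially diluted compounds (8×10EE-13 to 8×10EE-7 M before addition) and [125I]-GLP-1-(7-36)NH2 with WGA SPA beads, 2 h at 30° C, pH 7.4. IC50 taken from displacement by non-linear regression. Run at ≤0.001% or 2.0% final serum albumin.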

Row | SMILES | EC50 (human GLP-1 receptor [1]) [pM] | IC50 (human GLP-1 receptor [2]) [nM]
1 | CC[C@H](C)[C@H](NC(=O)[C@H](CC(C)C)NC(=O)[C@H](Cc1c[nH]c2ccccc12)NC(=O)[C@H](CCC(N)=O)NC(=O)[C@@H](NC(=O)[C@H](Cc1ccccc1)NC(=O)[C@H](CCC(=O)O)NC(=O)[C@H](CCCNC(=N)N)NC(=O)[C@H](C)NC(=O)[C@H](CCCNC(=N)N)NC(=O)[C@H](CCCNC(=N)N)NC(=O)[C@H](C)NC(=O)[C@H](CC(=O)O)NC(=O)[C@H](CC(C)C)NC(=O)[C@H](Cc1ccc(O)cc1)NC(=O)[C@H](CCCCN)NC(=O)[C@H](CO)NC(=O)[C@H](CC(C)C)NC(=O)[C@H](CC(=O)O)NC(=O)[C@H](CO)NC(=O)[C@@H](NC(=O)[C@H](Cc1ccccc1)NC(=O)[C@@H](NC(=O)CNC(=O)[C@H](CCC(N)=O)NC(=O)C(C)(C)NC(=O)[C@@H](N)Cc1c[nH]cn1)[C@@H](C)O)[C@@H](C)O)C(C)C)C(=O)N[C@@H](CCCCNC(=O)COCCOCCNC(=O)COCCOCCNC(=O)CC[C@H](NC(=O)CC[C@H](NC(=O)CC[C@H](NC(=O)CCCCCCCCCCCCCCCCC(=O)O)C(=O)O)C(=O)O)C(=O)O)C(=O)N[C@H](C(N)=O)[C@@H](C)O [Chem. 6, N^ε28-[2-[2-[2-[[2-[2-[2-[[(4S)-4-carboxy-4-[[(4S)-4-carboxy-4-[[(4S)-4-carboxy-4-(17-carboxyheptadecanoylamino)butanoyl]amino]butanoyl]amino]butanoyl]amino]ethoxy]ethoxy]acetyl]amino]ethoxy]ethoxy]acetyl]-[Aib2,Leu10,Ala16,Arg20,Glu21,Ile27,Lys28]-Glucagon amide] (H-H[Aib]QGTFTSDLSKYLDARRAREFVQWLIK([AEEA-AEEA-γGlu-γGlu-γGlu-C18 diacid])T-NH2; N-terminus assumed) | 5 | 0.1
2 | CC[C@H](C)[C@H](NC(=O)[C@H](CC(C)C)NC(=O)[C@H](Cc1c[nH]c2ccccc12)NC(=O)[C@H](CCC(N)=O)NC(=O)[C@@H](NC(=O)[C@H](Cc1ccccc1)NC(=O)[C@H](CC(=O)O)NC(=O)[C@H](CCC(N)=O)NC(=O)[C@H](C)NC(=O)[C@H](CCCNC(=N)N)NC(=O)[C@H](CCCNC(=N)N)NC(=O)[C@H](CO)NC(=O)[C@H](CCC(=O)O)NC(=O)[C@H](CC(C)C)NC(=O)[C@H](Cc1ccc(O)cc1)NC(=O)[C@H](CCCCN)NC(=O)[C@H](CO)NC(=O)[C@H](CC(C)C)NC(=O)[C@H](CC(=O)O)NC(=O)[C@H](CO)NC(=O)[C@@H](NC(=O)[C@H](Cc1ccccc1)NC(=O)[C@@H](NC(=O)CNC(=O)[C@H](CCC(N)=O)NC(=O)C(C)(C)NC(=O)[C@@H](N)Cc1c[nH]cn1)[C@@H](C)O)[C@@H](C)O)C(C)C)C(=O)N[C@@H](CCCCNC(=O)COCCOCCNC(=O)COCCOCCNC(=O)CC[C@H](NC(=O)CC[C@H](NC(=O)CC[C@H](NC(=O)CCCCCCCCCCCCCCCCC(=O)O)C(=O)O)C(=O)O)C(=O)O)C(=O)N[C@H](C(N)=O)[C@@H](C)O [Chem. 8, N^ε28-[2-[2-[2-[[2-[2-[2-[[(4S)-4-carboxy-4-[[(4S)-4-carboxy-4-[[(4S)-4-carboxy-4-(17-carboxyheptadecanoylamino)butanoyl]amino]butanoyl]amino]butanoyl]amino]ethoxy]ethoxy]acetyl]amino]ethoxy]ethoxy]acetyl]-[Aib2,Leu10,Glu15,Ile27,Lys28]-Glucagon amide] (H-H[Aib]QGTFTSDLSKYLESRRAQDFVQWLIK([AEEA-AEEA-γGlu-γGlu-γGlu-C18 diacid])T-NH2; N-terminus assumed) | 7 | 0.1
3 | CC[C@H](C)[C@H](NC(=O)[C@H](CC(C)C)NC(=O)[C@H](Cc1c[nH]c2ccccc12)NC(=O)[C@H](CCC(N)=O)NC(=O)[C@@H](NC(=O)[C@H](Cc1ccccc1)NC(=O)[C@H](CC(=O)O)NC(=O)[C@H](CCC(N)=O)NC(=O)[C@H](C)NC(=O)[C@H](CCCNC(=N)N)NC(=O)[C@H](CCCNC(=N)N)NC(=O)[C@H](CO)NC(=O)[C@H](CCC(=O)O)NC(=O)[C@H](CC(C)C)NC(=O)[C@H](Cc1ccc(O)cc1)NC(=O)[C@H](CCCCN)NC(=O)[C@H](CO)NC(=O)[C@@H](NC(=O)[C@H](CC(=O)O)NC(=O)[C@H](CO)NC(=O)[C@@H](NC(=O)[C@H](Cc1ccccc1)NC(=O)[C@@H](NC(=O)CNC(=O)[C@H](CCC(N)=O)NC(=O)C(C)(C)NC(=O)[C@@H](N)Cc1c[nH]cn1)[C@@H](C)O)[C@@H](C)O)C(C)C)C(C)C)C(=O)N[C@@H](CCCCNC(=O)COCCOCCNC(=O)COCCOCCNC(=O)CC[C@H](NC(=O)CC[C@H](NC(=O)CC[C@H](NC(=O)CCCCCCCCCCCCCCCCC(=O)O)C(=O)O)C(=O)O)C(=O)O)C(=O)N[C@H](C(N)=O)[C@@H](C)O [Chem. 10, N^ε28-[2-[2-[2-[[2-[2-[2-[[(4S)-4-carboxy-4-[[(4S)-4-carboxy-4-[[(4S)-4-carboxy-4-(17-carboxyheptadecanoylamino)butanoyl]amino]butanoyl]amino]butanoyl]amino]ethoxy]ethoxy]acetyl]amino]ethoxy]ethoxy]acetyl]-[Aib2,Val10,Glu15,Ile27,Lys28]-Glucagon amide] (H-H[Aib]QGTFTSDVSKYLESRRAQDFVQWLIK([AEEA-AEEA-γGlu-γGlu-γGlu-C18 diacid])T-NH2) | 3 | 0.1
4 | CC[C@H](C)[C@H](NC(=O)[C@H](CC(C)C)NC(=O)[C@H](Cc1c[nH]c2ccccc12)NC(=O)[C@H](CCC(N)=O)NC(=O)[C@@H](NC(=O)[C@H](Cc1ccccc1)NC(=O)[C@H](CCC(=O)O)NC(=O)[C@H](CCCNC(=N)N)NC(=O)[C@H](C)NC(=O)[C@H](CCCNC(=N)N)NC(=O)[C@H](CCCNC(=N)N)NC(=O)[C@H](CO)NC(=O)[C@H](CCC(=O)O)NC(=O)[C@H](CC(C)C)NC(=O)[C@H](Cc1ccc(O)cc1)NC(=O)[C@H](CCCCN)NC(=O)[C@H](CO)NC(=O)[C@H](CC(C)C)NC(=O)[C@H](CC(=O)O)NC(=O)[C@H](CO)NC(=O)[C@@H](NC(=O)[C@H](Cc1ccccc1)NC(=O)[C@@H](NC(=O)CNC(=O)[C@H](CCC(N)=O)NC(=O)C1(NC(=O)[C@@H](N)Cc2c[nH]cn2)CCC1)[C@@H](C)O)[C@@H](C)O)C(C)C)C(=O)N[C@@H](CCCCNC(=O)CC[C@H](NC(=O)CC[C@H](NC(=O)COCCOCCNC(=O)COCCOCCNC(=O)CC[C@H](NC(=O)CC[C@H](NC(=O)CCCCCCCCCCCCCCCCC(=O)O)C(=O)O)C(=O)O)C(=O)O)C(=O)O)C(=O)N[C@H](C(N)=O)[C@@H](C)O [Chem. 13, N^ε28-[(4S)-4-carboxy-4-[[(4S)-4-carboxy-4-[[2-[2 [2-[[2-[2-[2-[[(4S)-4-carboxy-4-[[(4S)-4-carboxy-4-(17-carboxyheptadecanoylamino)butanoyl]amino]butanoyl]amino]ethoxy]ethoxy]acetyl]amino]ethoxy]ethoxy]acetyl]amino]butanoyl]amino]butanoyl]-[Acb2,Leu10,Glu15,Arg20,Glu21,Ile27,Lys28]-Glucagon amide] (H-H[Ac4c]QGTFTSDLSKYLESRRAREFVQWLIK([γGlu-γGlu-AEEA-AEEA-γGlu-γGlu-C18 diacid])T-NH2) | 4 | 0.1
